Test results published in the NIST ThermoML archive (doi:10.1016/j.jct.2016.03.021).

Assay: wn = mass fraction of the nth substance listed
Conditions: Liquid; for mass density: Vibrating tube method

NCCO [2-aminoethan-1-ol] + O
mass density [kg/m3]
Conditions | w1 = 0.1001 | w1 = 0.2 | w1 = 0.3005 | w1 = 0.4
313.15 K, 100000 kPa | – | – | 1037.9 | 1041.1
313.15 K, 110000 kPa | 1037.6 | 1038.4 | 1041 | 1044
313.15 K, 120000 kPa | 1041.1 | 1041.8 | 1044.1 | 1047
333.15 K, 100 kPa | 986.3 | 988.8 | 992 | 995.3
333.15 K, 500 kPa | 986.5 | 988.9 | 992.3 | 995.6
333.15 K, 1000 kPa | 986.7 | 989.1 | 992.4 | 995.8
333.15 K, 2000 kPa | 987.1 | 989.5 | 992.8 | 996.2
333.15 K, 5000 kPa | 988.4 | 990.7 | 994 | 997.3
333.15 K, 10000 kPa | 990.5 | 992.7 | 996 | 999.3
333.15 K, 15000 kPa | 992.6 | 994.7 | 997.9 | 1001.1
333.15 K, 20000 kPa | 994.6 | 996.6 | 999.7 | 1003
333.15 K, 30000 kPa | 998.6 | 1000.5 | – | –

viscosity [mPa·s]
Conditions | w1 = 0.1 | w1 = 0.1001 | w1 = 0.2 | w1 = 0.3 | w1 = 0.3005 | w1 = 0.4 | w1 = 0.4001
313.15 K, 120000 kPa, Falling or rolling sphere viscometry | – | 0.936 | 1.263 | – | 1.846 | – | 2.675
333.15 K, 93 kPa, Concentric cylinders viscometry | 0.6263 | – | 0.7832 | 1.084 | – | 1.405 | –
333.15 K, 100 kPa, Falling or rolling sphere viscometry | – | 0.615 | 0.78 | – | 1.061 | – | 1.389
333.15 K, 101 kPa, Falling or rolling sphere viscometry | 0.615 | – | 0.78 | 1.061 | – | 1.389 | –
333.15 K, 5000 kPa, Falling or rolling sphere viscometry | – | 0.614 | 0.788 | – | 1.067 | – | 1.401
333.15 K, 10000 kPa, Falling or rolling sphere viscometry | – | 0.617 | 0.792 | – | 1.075 | – | 1.41
333.15 K, 20000 kPa, Falling or rolling sphere viscometry | – | 0.622 | 0.799 | – | 1.089 | – | 1.434
333.15 K, 30000 kPa, Falling or rolling sphere viscometry | – | 0.625 | 0.807 | – | 1.103 | – | 1.453
